Reference: PMC8141582, “Synergistic Effect of Statins and Abiraterone Acetate on the Growth Inhibition of Neuroblastoma via Targeting Androgen Receptor” (Frontiers in Oncology, 2021)

Columns and labels:
NB cells = test system: NB cells; design: method as in PMID 28326012; conditions: cited from earlier work; for proliferation, migration, invasion, and sphere formation of NB cells: AR antagonists, hormone-free medium
N2a cells = assay: MTT cell viability assay, N2a; type: cell-based, mouse; conditions: for IC50: Mus musculus, N2a, NB cell line, MTT, 72 h
Method: (§1) N2a, SH-SY5Y, SK-N-BE (2), 10A, HUVEC, HL7702 cells were plated in 96-well plates at 8,000 cells/well, respectively, in complete media in triplicate wells for each dose and cultured for 18 h. The neuroblastoma cell lines, N2a, SH-SY5Y, and SK-N-BE (2), and non-cancer cell lines, 10A, HUVEC, and HL7702, were treated with simvastatin and fluvastatin in a range of doses from 0 to 20 μM and with AA from 0 to 30 μM; N2a, SH-SY5Y SK-N-BE (2), were treated with rosuvastatin in a range of doses from 0 to 100 μM for 72 h. Statins dissolved in DMSO and AA dissolved in ethanol. After 72 h treatment, the medium was added 0.5 mg/ml MTT reagent and incubated at 37°C for 4 h. Subsequently, the supernatant was aspirated, and cells were lysed in 150 µl DMSO, then shaken 10 min at 37°C. The optical density (OD) was measured at 570 and 630 nm using a plate reader.

SH-SY5Y cells = assay: MTT cell viability assay, SH-SY5Y; type: cell-based; conditions: Homo sapiens, NB cell line, 72 h
Method: as §1

SK-N-BE (2) cells = assay: MTT cell viability assay, SK-N-BE (2); type: cell-based; conditions: Homo sapiens, SKNBE2, NB cell line, 72 h
Method: as §1

10A cells = assay: MTT cell viability assay, 10A; type: cell-based; conditions: Homo sapiens, normal cell line, 72 h
Method: (§2) Statins dissolved in DMSO and AA dissolved in ethanol. After 72 h treatment, the medium was added 0.5 mg/ml MTT reagent and incubated at 37°C for 4 h. Subsequently, the supernatant was aspirated, and cells were lysed in 150 µl DMSO, then shaken 10 min at 37°C. The optical density (OD) was measured at 570 and 630 nm using a plate reader.

HUVEC cells = assay: MTT cell viability assay, HUVEC; type: cell-based; conditions: Homo sapiens, normal cell line, 72 h
Method: as §2

HL7702 cells = assay: MTT cell viability assay, HL7702; type: cell-based; conditions: Homo sapiens, L02, normal cell line, 72 h
Method: as §2

SH-SY5Y xenografts = assay: SH-SY5Y tumor xenograft study; type: in vivo, BALB/c nude mice; conditions: AA 150 mg/kg, oral daily
Description: Four weeks old BALB/c nude mice of both sexes were purchased from Vital River Laboratory Animal Technology Co., Ltd. (Beijing, China) and maintained under specific pathogen-free conditions. Male mice were castrated 5 days before cell inoculation. […] Then, all the mice were divided randomly into four groups: control group (Placebo, n = 7), simvastatin group (Sim, n = 6), abiraterone acetate group (AA, n = 6), and combination group (Com, n = 6) including three male mice in each group. […] AA 150 mg/kg/day; combined simvastatin 10 mg/kg/day with AA 75 mg/kg/day. Tumor was harvested after 10 days of dosing, then fixed half of a tumor in 4% buffered formaldehyde for IHC and the other half was stored −80°C for RT-PCR and Western Blots analysis.

22RV1 cells = test system: 22RV1 cells; design: key to Results (abiraterone acetate alone): Positive: Abiraterone acetate alone inhibited the progression of cancer; Negative: Abiraterone acetate could not inhibit the progression of cancer; conditions: Prostate Cancer, 200.0 mg/kg, oral; ref Supplement [29]; cited from earlier work
PC-3 cells = test system: PC-3 cells; design: key to Results (abiraterone acetate alone): Positive: Abiraterone acetate alone inhibited the progression of cancer; Negative: Abiraterone acetate could not inhibit the progression of cancer; conditions: Prostate Cancer, 98.0 mg/kg/day, oral; ref Supplement [28]; cited from earlier work
LNCaP cells = test system: LNCaP cells; design: method as in Supplement [30]; key: Positive: Abiraterone acetate alone inhibited the progression of cancer; Negative: Abiraterone acetate could not inhibit the progression of cancer; conditions: Prostate Cancer, 3.5 mg/kg/day, i.p.; ref Supplement [30]; cited from earlier work
MDA-MB-453 cells = test system: MDA-MB-453 cells; design: method as in Supplement [31]; key: Positive: Abiraterone acetate alone inhibited the progression of cancer; Negative: Abiraterone acetate could not inhibit the progression of cancer; conditions: Breast Cancer, 285.7 mg/kg/day, oral; ref Supplement [31]; cited from earlier work
Caki2 cells = test system: Caki2 cells; design: method as in Supplement [32]; key: Positive: Abiraterone acetate alone inhibited the progression of cancer; Negative: Abiraterone acetate could not inhibit the progression of cancer; conditions: Renal Cell Carcinoma, 195.8 mg/kg/day, i.p.; ref Supplement [32]; cited from earlier work

| IC50 (SH-SY5Y cells) | IC50 (SK-N-BE (2) cells) | SMILES | proliferation, migration, invasion, and sphere formation of NB cells (NB cells) | IC50 (N2a cells) | IC50 (10A cells) | IC50 (HUVEC cells) | IC50 (HL7702 cells) | other results |
| --- | --- | --- | --- | --- | --- | --- | --- | --- |
| 2.72 µM | 9.86 µM | CC(=O)O[C@H]1CC[C@@]2(C)C(=CC[C@@H]3[C@@H]2CC[C@]2(C)C(c4cccnc4)=CC[C@@H]32)C1 [Abiraterone acetate] | – | 4.32 µM | 5.2 µM | 22.6 µM | 5.31 µM | inhibition rate (N2a cells; N2a cells, 2.5 μM AA): ~20%; tumor growth (SH-SY5Y xenografts): tumor growth delay; Results (abiraterone acetate alone) (22RV1 cells): Negative; Results (abiraterone acetate alone) (PC-3 cells): Positive; Results (abiraterone acetate alone) (LNCaP cells): Positive; Results (abiraterone acetate alone) (MDA-MB-453 cells): Negative; Results (abiraterone acetate alone) (Caki2 cells): Positive |
| 6 µM | 8.41 µM | CC(C)n1c(/C=C/C(O)CC(O)CC(=O)O)c(-c2ccc(F)cc2)c2ccccc21 (stereo not shown) [Fluvastatin] | – | 5.09 µM | 13.3 µM | 8.96 µM | 29.7 µM | – |
| > 100 µM | 67.6 µM | CC(C)c1nc(N(C)S(C)(=O)=O)nc(-c2ccc(F)cc2)c1/C=C/[C@@H](O)C[C@@H](O)CC(=O)O [Rosuvastatin] | – | 68.4 µM | – | – | – | – |

The remaining lines, values behind:

| SMILES | IC50 (SH-SY5Y cells) | IC50 (SK-N-BE (2) cells) | proliferation, migration, invasion, and sphere formation of NB cells (NB cells) | IC50 (N2a cells) | IC50 (10A cells) | IC50 (HUVEC cells) | IC50 (HL7702 cells) | other results |
| --- | --- | --- | --- | --- | --- | --- | --- | --- |
| CNC(=O)c1ccc(N2C(=S)N(c3cnc(C#N)c(C(F)(F)F)c3)C(=O)C23CCC3)cc1F [ARN509] | – | – | significantly decreased | – | – | – | – | – |
| CNC(=O)c1ccc(N2C(=S)N(c3ccc(C#N)c(C(F)(F)F)c3)C(=O)C2(C)C)cc1F [MDV3100] | – | – | significantly decreased | – | – | – | – | – |
| C[C@]1(O)CC[C@H]2[C@@H]3CCC4=CC(=O)CCC4=C3C=C[C@@]21C [R1881] | – | – | – | – | – | – | – | growth of NB (NB cells; AR agonist, in vitro and in vivo): promoted the growth of NB in vitro and in vivo |
